Test results as given in PubChem BioAssay AID328 (DTP/NCI, 2004).
Toxic doses and inconclusive results are not listed. The calls were made as follows: active = survival T/C of 150% or more; inactive = T/C below 125% in these data.

Test system: BDF1 mice, P388 leukemia ip, median survival T/C
Test: NCI In Vivo Anticancer Drug Screen. Data for tumor model P388 Leukemia (intraperitoneal) in B6D2F1 (BDF1) mice
Conditions: endpoint: median survival time, higher = longer survival
Method in brief: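 Reported as T/C, where T is the survival measurement in dosed animals and C the same measurement in vehicle controls.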

[1] = dose: 50.0 mg/kg/injection, schedule: Q01DX009 (ip), vehicle: saline with Tween-80
[2] = dose: 100.0 mg/kg/injection, schedule: Q01DX009 (ip), vehicle: saline with Tween-80
[3] = dose: 200.0 mg/kg/injection, schedule: Q01DX009 (ip), vehicle: saline with Tween-80
[4] = dose: 100.0 mg/kg/injection, schedule: Q04DX003 (ip), vehicle: saline with Tween-80
[5] = dose: 200.0 mg/kg/injection, schedule: Q04DX003 (ip), vehicle: saline with Tween-80
[6] = dose: 400.0 mg/kg/injection, schedule: Q04DX003 (ip), vehicle: saline with Tween-80
[7] = dose: 100.0 mg/kg/injection, schedule: Q04DX003 (ip), vehicle: saline
[8] = dose: 200.0 mg/kg/injection, schedule: Q04DX003 (ip), vehicle: saline

Measured: T/C

Cc1ccc(Cc2c(C=O)nc(N)[nH]c2=O)c2ccccc12
inactive: dose: 12.5 mg/kg/injection, schedule: Q01DX009 (ip), vehicle: saline with Tween-80 112 % of control | dose: 25.0 mg/kg/injection, schedule: Q01DX009 (ip), vehicle: saline with Tween-80 96 % of control | [1] 102 % of control | dose: 50.0 mg/kg/injection, schedule: Q01DX009 (ip), vehicle: suspension in saline 97 % of control | dose: 100.0 mg/kg/injection, schedule: Q01DX009 (ip), vehicle: suspension in saline 94 % of control | dose: 200.0 mg/kg/injection, schedule: Q01DX009 (ip), vehicle: suspension in saline 106 % of control

C#CC(c1ccccc1)(c1ccccc1)n1ccnc1
inactive: [1] 98 % of control | [2] 100 % of control | [3] 98 % of control

COC(CCC#N)c1ccc(C)cc1 (configuration not stated)
inactive: dose: 25.0 mg/kg/injection, schedule: Q04DX003 (sc), vehicle: olive oil, sesame oil, peanut oil 100 % of control | dose: 50.0 mg/kg/injection, schedule: Q04DX003 (sc), vehicle: olive oil, sesame oil, peanut oil 95 % of control | dose: 100.0 mg/kg/injection, schedule: Q04DX003 (sc), vehicle: olive oil, sesame oil, peanut oil 100 % of control

C[N+](C)(C)CC(O)CC#N (configuration not stated)
inactive: dose: 12.5 mg/kg/injection, schedule: Q01DX009 (ip), vehicle: Klucel (hydroxypropylcellulose) (HPC) 100 % of control | dose: 25.0 mg/kg/injection, schedule: Q01DX009 (ip), vehicle: Klucel (hydroxypropylcellulose) (HPC) 100 % of control | dose: 50.0 mg/kg/injection, schedule: Q01DX009 (ip), vehicle: Klucel (hydroxypropylcellulose) (HPC) 90 % of control

C=C1C(=O)O[C@@H]2CC(CO)=C([C@@H](C)CCCO)[C@@H](OC(=O)/C(C)=C\C)[C@H]12
inactive: dose: 2.0 mg/kg/injection, schedule: Q01DX009 (ip), vehicle: saline + alcohol 123 % of control | dose: 4.0 mg/kg/injection, schedule: Q01DX009 (ip), vehicle: saline + alcohol 104 % of control | dose: 8.0 mg/kg/injection, schedule: Q01DX009 (ip), vehicle: saline + alcohol 123 % of control | dose: 16.0 mg/kg/injection, schedule: Q01DX009 (ip), vehicle: saline + alcohol 114 % of control

COc1ccc(C(O)(CS(C)(=O)=O)c2cccs2)cc1 (configuration not stated)
inactive: [1] 110 % of control | [2] 110 % of control | [3] 103 % of control

COC(=O)C(C#N)Cc1ccccc1Cl (configuration not stated)
inactive: dose: 50.0 mg/kg/injection, schedule: Q04DX003 (ip), vehicle: saline with Tween-80 101 % of control | [4] 98 % of control | [5] 98 % of control | [6] 97 % of control

Nc1nc(-c2ccccc2)cc2ccccc12
inactive: dose: 12.5 mg/kg/injection, schedule: Q04DX003 (ip), vehicle: saline with Tween-80 100 % of control | dose: 25.0 mg/kg/injection, schedule: Q04DX003 (ip), vehicle: saline with Tween-80 97 % of control

CC(C)[CH2][Sn]([CH2]C(C)C)([CH2]C(C)C)[C](C)(C)C
inactive: [7] 103 % of control | [8] 112 % of control | dose: 400.0 mg/kg/injection, schedule: Q04DX003 (ip), vehicle: saline 112 % of control

O=COCC(O)COC=O
inactive: dose: 50.0 mg/kg/injection, schedule: Q04DX003 (ip), vehicle: saline 103 % of control | [7] 112 % of control | [8] 112 % of control

O=C1Cc2cc(=C(c3ccccc3)c3ccccc3)ccc2=C1c1ccccc1
inactive: dose: 50.0 mg/kg/injection, schedule: Q01DX005 (ip), vehicle: saline with Tween-80 93 % of control | dose: 100.0 mg/kg/injection, schedule: Q01DX005 (ip), vehicle: saline with Tween-80 96 % of control | dose: 200.0 mg/kg/injection, schedule: Q01DX005 (ip), vehicle: saline with Tween-80 91 % of control

O[C@@H]1CCCC[C@@H]1n1cnc2c(=S)nc[nH]c21
inactive: [2] 92 % of control | [4] 100 % of control | [3] 96 % of control | [5] 104 % of control | [6] 100 % of control
